# Test results: publication PMC6968694 (Emerging Microbes & Infections, 2020)
# Biological target: T1, MtbPurT (Mycobacterium tuberculosis, UniProt P95197)
# T1 construct: gene purT
# Test: biochemical
# T1 sequence (P95197 entry or part of it): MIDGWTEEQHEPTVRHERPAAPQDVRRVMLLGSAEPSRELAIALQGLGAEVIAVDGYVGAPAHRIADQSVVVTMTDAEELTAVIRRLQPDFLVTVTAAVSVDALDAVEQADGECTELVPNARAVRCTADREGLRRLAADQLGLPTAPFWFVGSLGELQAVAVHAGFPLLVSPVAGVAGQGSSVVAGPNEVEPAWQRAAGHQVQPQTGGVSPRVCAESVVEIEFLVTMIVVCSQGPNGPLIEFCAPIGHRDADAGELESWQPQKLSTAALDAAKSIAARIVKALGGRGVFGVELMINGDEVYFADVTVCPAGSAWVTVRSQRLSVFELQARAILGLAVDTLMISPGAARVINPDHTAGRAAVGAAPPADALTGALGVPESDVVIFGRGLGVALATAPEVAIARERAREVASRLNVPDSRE
compound,measurement,value
Nc1ncnc2c1ncn2[C@@H]1O[C@H](CO[P@](=O)(O)O[P@](=O)(O)O[P@@](=O)(O)S)[C@@H](O)[C@H]1O [ATPγS],Kd,207 ± 8.02 µM
